Target: T1, Gamma-glutamyl transpeptidase (eqGGT) (Equus caballus, UniProt F7DXY0)
T1 construct: GGT from equine kidney (Sigma-Aldrich)
Assay: time-dependent irreversible inactivation, pre-incubation with […] DON then dilution
Assay type: biochemical

T1 sequence (F7DXY0 75-452): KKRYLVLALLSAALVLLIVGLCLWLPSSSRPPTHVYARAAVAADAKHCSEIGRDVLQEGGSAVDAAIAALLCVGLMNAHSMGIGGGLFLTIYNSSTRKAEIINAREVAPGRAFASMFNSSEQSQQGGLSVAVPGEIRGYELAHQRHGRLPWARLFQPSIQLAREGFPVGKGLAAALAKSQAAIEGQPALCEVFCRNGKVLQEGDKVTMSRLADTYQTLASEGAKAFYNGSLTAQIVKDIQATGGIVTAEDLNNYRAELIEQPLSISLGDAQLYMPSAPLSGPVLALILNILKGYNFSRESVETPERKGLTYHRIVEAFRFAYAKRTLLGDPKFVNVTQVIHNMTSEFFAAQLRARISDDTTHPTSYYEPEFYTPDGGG
T1 sequence (F7DXY0 453-641): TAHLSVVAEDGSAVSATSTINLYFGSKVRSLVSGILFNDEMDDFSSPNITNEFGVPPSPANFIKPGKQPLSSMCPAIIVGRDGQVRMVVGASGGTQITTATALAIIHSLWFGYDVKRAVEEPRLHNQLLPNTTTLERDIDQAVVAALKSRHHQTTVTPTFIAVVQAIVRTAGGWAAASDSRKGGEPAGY

## [N-]=[N+]=CC(=O)CC[C@H](N)C(=O)O [DON, 6-diazo-5-oxo-L-norleucine]
  time-dependent irreversible inactivation, pre-incubation with 400 μM DON then di: DON acts as an irreversible inhibitor, and then as an inactivator of GGT, because, after dilution, the activity was not restored

From article PMC6949936, “Probing the Interactions of Sulfur-Containing Histidine Compounds with Human Gamma-Glutamyl Transpeptidase” (Marine Drugs, 2019)
